The source made the active and inactive calls. The rule behind the calls is not given here.
Legend:
A549 [1] = experiment: Cytotoxicity against human A549 cells assessed as growth inhibition after 48 hrs by trypan blue assay; assay type: functional, cell-based; conditions: A549, 48 h
HT-29 [2] = experiment: Cytotoxicity against human HT-29 cells assessed as growth inhibition after 48 hrs by trypan blue assay; assay type: functional, cell-based; conditions: HT-29, 48 h
HCT-15 [3] = experiment: Cytotoxicity against human HCT15 cells assessed as growth inhibition after 48 hrs by trypan blue assay; assay type: functional, cell-based; conditions: HCT-15, 48 h
SCC-25 [4] = experiment: Cytotoxicity against human SCC25 cells assessed as growth inhibition after 48 hrs by trypan blue assay; assay type: functional, cell-based; conditions: SCC-25, 48 h
MIA PaCa-2 [5] = experiment: Cytotoxicity against human MIAPaCa2 cells assessed as growth inhibition after 48 hrs by trypan blue assay; assay type: functional, cell-based; conditions: MIA PaCa-2, 48 h
BXPC-3 [6] = experiment: Cytotoxicity against human BxPC3 cells assessed as growth inhibition after 48 hrs by trypan blue assay; assay type: functional, cell-based; conditions: BXPC-3, 48 h
LNCaP [7] = experiment: Cytotoxicity against human LNCAP cells assessed as growth inhibition after 48 hrs by trypan blue assay; assay type: functional, cell-based
HT-29 [8] = experiment: Cytotoxicity against human HT-29 cells assessed as growth inhibition after 24 hrs by MTT assay; assay type: functional, cell-based; conditions: HT-29, 24 h
Jurkat = experiment: Cytotoxicity against human Jurkat cells assessed as growth inhibition after 24 hrs by MTT assay; assay type: functional, cell-based
MCF7 = experiment: Cytotoxicity against human MCF7 cells assessed as growth inhibition after 24 hrs by MTT assay; assay type: functional, cell-based; conditions: MCF7, 24 h
BXPC-3 [9] = experiment: Cytotoxicity against human BxPC3 cells assessed as growth inhibition after 24 hrs by MTT assay; assay type: functional, cell-based; conditions: BXPC-3, 24 h
HT-29 [10] = experiment: Induction of apoptosis in human HT-29 cells after 24 hrs using annexin V-FITC and propidium iodide staining by flow cytometry; assay type: functional, cell-based
HT-29 [11] = experiment: Induction of apoptosis in human HT-29 cells at 10 uM after 24 hrs using annexin V-FITC and propidium iodide staining by flow cytometry; assay type: functional
HT-29 [12] = experiment: Induction of apoptosis in human HT-29 cells at 50 uM after 24 hrs using annexin V-FITC and propidium iodide staining by flow cytometry; assay type: functional
HT-29 [13] = experiment: Antiproliferative activity against human HT-29 cells assessed as decrease of PCNA expression after 24 hrs by ELISA; assay type: functional, cell-based
HT-29 [14] = experiment: Cell cycle arrest in human HT-29 cells assessed as reduction in G0/G1 phase after 24 hrs using propidium iodide staining-based flow cytometry; assay type: functional
HT-29 [15] = experiment: Cell cycle arrest in human HT-29 cells assessed as increase in G2/M phase after 24 hrs using propidium iodide staining-based flow cytometry; assay type: functional
HT-29 [16] = experiment: Cell cycle arrest in human HT-29 cells assessed as accumulation of cells at G0/G1 phase at 3 uM after 24 hrs using propidium iodide staining-based flow cytometry (reference value: 74.8%); assay type: functional
HT-29 [17] = experiment: Cell cycle arrest in human HT-29 cells assessed as accumulation of cells at S phase at 3 uM after 24 hrs using propidium iodide staining-based flow cytometry (reference value: 19.4%); assay type: functional
HT-29 [18] = experiment: Cell cycle arrest in human HT-29 cells assessed as accumulation of cells at G2/M phase at 3 uM after 24 hrs using propidium iodide staining-based flow cytometry (reference value: 5.8%); assay type: functional
HT-29 [19] = experiment: Cell cycle arrest in human HT-29 cells assessed as accumulation of cells at G0/G1 phase at 10 uM after 24 hrs using propidium iodide staining-based flow cytometry (reference value: 74.8%); assay type: functional
HT-29 [20] = experiment: Cell cycle arrest in human HT-29 cells assessed as accumulation of cells at S phase at 10 uM after 24 hrs using propidium iodide staining-based flow cytometry (reference value: 19.4%); assay type: functional
HT-29 [21] = experiment: Cell cycle arrest in human HT-29 cells assessed as accumulation of cells at G2/M phase at 10 uM after 24 hrs using propidium iodide staining-based flow cytometry (reference value: 5.8%); assay type: functional
MIA PaCa-2 [22] = experiment: Ratio of p-NO-ASA IC50 to compound IC50 for human MIAPaCa2 cells assessed as growth inhibition after 48 hrs by trypan blue assay; assay type: functional
BXPC-3 [23] = experiment: Ratio of p-NO-ASA IC50 to compound IC50 for human BxPC3 cells assessed as growth inhibition after 48 hrs by trypan blue assay; assay type: functional
LNCaP [24] = experiment: Ratio of p-NO-ASA IC50 to compound IC50 for human LNCAP cells assessed as growth inhibition after 48 hrs by trypan blue assay; assay type: functional
A549 [25] = experiment: Ratio of p-NO-ASA IC50 to compound IC50 for human A549 cells assessed as growth inhibition after 48 hrs by trypan blue assay; assay type: functional
HT-29 [26] = experiment: Ratio of p-NO-ASA IC50 to compound IC50 for human HT-29 cells assessed as growth inhibition after 48 hrs by trypan blue assay; assay type: functional
HCT-15 [27] = experiment: Ratio of p-NO-ASA IC50 to compound IC50 for human HCT15 cells assessed as growth inhibition after 48 hrs by trypan blue assay; assay type: functional
SCC-25 [28] = experiment: Ratio of p-NO-ASA IC50 to compound IC50 for human SCC25 cells assessed as growth inhibition after 48 hrs by trypan blue assay; assay type: functional
HT-29 [29] = experiment: Induction of apoptosis in human HT-29 cells at 100 uM after 24 hrs using annexin V-FITC and propidium iodide staining by flow cytometry; assay type: functional
HT-29 [30] = experiment: Induction of apoptosis in human HT-29 cells at 300 uM after 24 hrs using annexin V-FITC and propidium iodide staining by flow cytometry; assay type: functional
HT-29 [31] = experiment: Cell cycle arrest in human HT-29 cells assessed as reduction in G0/G1 phase at 100 to 300 uM after 24 hrs using propidium iodide staining-based flow cytometry; assay type: functional
HT-29 [32] = experiment: Cell cycle arrest in human HT-29 cells assessed as increase in S phase at 100 to 300 uM after 24 hrs using propidium iodide staining-based flow cytometry; assay type: functional
HT-29 [33] = experiment: Cell cycle arrest in human HT-29 cells assessed as increase in G2/M phase at 100 to 300 uM after 24 hrs using propidium iodide staining-based flow cytometry; assay type: functional

CC(=O)Oc1ccccc1C(=O)Oc1ccc(CO[N+](=O)[O-])cc1
IC50 (A549 [1]): 10 µM | IC50 (HT-29 [2]): 10 µM | IC50 (HCT-15 [3]): 10 µM | IC50 (SCC-25 [4]): 10 µM | IC50 (MIA PaCa-2 [5]): 10 µM | IC50 (BXPC-3 [6]): 10 µM | IC50 (LNCaP [7]): 10 µM

CCOP(=O)(OCC)OCc1ccccc1OC(C)=O
IC50 (HT-29 [8]): 82.7 µM | IC50 (Jurkat): 110 µM | IC50 (MCF7): 62.7 µM | IC50 (BXPC-3 [9]): 155 µM

CCOP(=O)(OCC)OCc1ccc(OC(C)=O)cc1
Activity (HT-29 [10]): Dose-dependent effect | Activity (HT-29 [11]): 25% | Activity (HT-29 [12]): 79% | Activity (HT-29 [13]): Dose-dependent effect | Activity (HT-29 [14]): Dose-dependent effect | Activity (HT-29 [15]): Active | Activity (HT-29 [16]): 53.2% | Activity (HT-29 [17]): 38.2% | Activity (HT-29 [18]): 9.6% | Activity (HT-29 [19]): 42.9% | Activity (HT-29 [20]): 40.8% | Activity (HT-29 [21]): 16.3% | Ratio IC50 (MIA PaCa-2 [22]): 17 | Ratio IC50 (BXPC-3 [23]): 17 | Ratio IC50 (LNCaP [24]): 17 | Ratio IC50 (A549 [25]): 17 | Ratio IC50 (HT-29 [26]): 17 | Ratio IC50 (HCT-15 [27]): 17 | Ratio IC50 (SCC-25 [28]): 17 | IC50 (HT-29 [8]): 0.82 µM | IC50 (Jurkat): 0.65 µM | IC50 (MCF7): 0.67 µM | IC50 (BXPC-3 [9]): 0.67 µM

CCOP(=O)(OCC)OCc1cccc(OC(C)=O)c1
Activity (HT-29 [13]): Dose-dependent effect | Activity (HT-29 [29]): 19% | Activity (HT-29 [30]): 79% | Activity (HT-29 [14]): Dose-dependent effect | Activity (HT-29 [15]): Active | Activity (HT-29 [31]): Active | Activity (HT-29 [32]): Active | Activity (HT-29 [33]): Active | IC50 (HT-29 [8]): 273 µM | IC50 (Jurkat): 451 µM | IC50 (MCF7): 214 µM | IC50 (BXPC-3 [9]): 162 µM

CCOP(=O)(OCC)OCc1ccc(OC(C)=O)c(C)c1
IC50 (HT-29 [8]): 0.31 µM | IC50 (Jurkat): 0.29 µM | IC50 (MCF7): 0.32 µM | IC50 (BXPC-3 [9]): 0.28 µM

CCOP(=O)(OCC)OCc1ccc(OC(C)=O)c(Cl)c1
IC50 (HT-29 [8]): 1.3 µM | IC50 (Jurkat): 0.68 µM | IC50 (MCF7): 0.7 µM | IC50 (BXPC-3 [9]): 0.65 µM
